In US11214540B2, “Compositions for treating neurodegenerative diseases” (COGNITION THERAPEUTICS, INC., priority 2017, dated 2022):

Columns and labels:
[1] = log P; format: physicochemical
Method in brief: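 Ratio of un-ionized compound concentrations between octanol and water, with aqueous pH set so the un-ionized form predominates. Value given as the log of the octanol/water ratio.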

[2] = target: potassium channel hERG (Homo sapiens (Human), UniProt Q12809); experiment: In vitro testing for hERG inhibition; format: biochemical; details: in vitro toxicity potassium channel hERG
Description: In vitro testing for hERG inhibition was performed in a standard assay (See: Haverkamp W, Breithardt G, Carnm A J, Janse M J, Rosen M R, Antzelevitch C, Escande D, Franz M, Malik M, Moss A and Shah R. (2000) Eur Heat J 21 (15); 1216-31).

[3] = target: Sigma-1 receptors on Jurkat cell membranes (Homo sapiens (Human), UniProt Q99720); experiment: Competitive Radioligand Binding Assay 1, Sigma-1 binding ([3H](+)pentazocine displacement); details: sigma-1 receptor affinity; read-out: S1 Ki
Description: Certain compounds were tested for interaction with several receptors by blocking the binding or action of their agonists or antagonists. Some compounds were tested to see whether they interact directly with known cellular receptor or signaling proteins. Compounds can be tested for the ability to displace binding of known agonists or antagonists of a given human receptor that was overexpressed in cell lines or isolated from tissue. Compounds can also be tested for the ability to block downstream signaling induced by agonists or antagonists of a given human receptor. Compounds can be tested for action at 100 known receptors, and it is desirable that specific activity will occur at only a small subset of CNS-relevant receptors.
For Sigma-1 binding, various concentrations of test compounds from 100 μM to 1 nM were used to displace 8 nM [3H](+)pentazocine from endogenous receptors on Jurkat cell membranes (Ganapathy M E et al. 1991, J Pharmacol. Exp. Ther. 289:251-260). 10 μM Haloperidol was used to define non-specific binding. […] (Bowen W D, et al. 1993, Mol. Neuropharmcol 3:117-126). 10 μM Haloperidol was used to define non-specific binding. Reactions were terminated by rapid filtration through Whatman GF/C filters using a Brandel 12R cell harvester followed by two washes with ice-cold buffer. Radioactivity on the dried filter discs was measured using a liquid scintillation analyzer (Tri-Carb 2900TR; PerkinElmer Life and Analytical Sciences). The displacement curves were plotted and the Ki values of the test compounds for the receptor subtypes were determined using GraphPad Prism (GraphPad Software Inc., San Diego, Calif.). The percentage specific binding was determined by dividing the difference between total bound (disintegrations per minute) and nonspecific bound (disintegrations per minute) by the total bound (disintegrations per minute). […]

[4] = target: Sigma-2 receptors on membranes from rat cerebral cortex (Rattus norvegicus (Rat), UniProt Q5U3Y7); experiment: Competitive Radioligand Binding Assay 1, Sigma-2 binding ([3H]DTG displacement with (+)pentazocine mask); details: sigma-2 receptor affinity; read-out: S2 Ki
Description: Using the same protocol, some compounds for which membrane trafficking data are given in Table 1 were tested for recognition of sigma-2 receptor. Certain compounds preferentially bind to the sigma-2 receptor.
For Sigma-1 binding, various concentrations of test compounds from 100 μM to 1 nM were used to displace 8 nM [3H](+)pentazocine from endogenous receptors on Jurkat cell membranes (Ganapathy M E et al. 1991, J Pharmacol. Exp. Ther. 289:251-260). 10 μM Haloperidol was used to define non-specific binding. […] (Bowen W D, et al. 1993, Mol. Neuropharmcol 3:117-126). 10 μM Haloperidol was used to define non-specific binding. Reactions were terminated by rapid filtration through Whatman GF/C filters using a Brandel 12R cell harvester followed by two washes with ice-cold buffer. Radioactivity on the dried filter discs was measured using a liquid scintillation analyzer (Tri-Carb 2900TR; PerkinElmer Life and Analytical Sciences). The displacement curves were plotted and the Ki values of the test compounds for the receptor subtypes were determined using GraphPad Prism (GraphPad Software Inc., San Diego, Calif.). The percentage specific binding was determined by dividing the difference between total bound (disintegrations per minute) and nonspecific bound (disintegrations per minute) by the total bound (disintegrations per minute).
Affinities for Sigma-1 and Sigma-2 receptors are typically obtained from published studies using cerebral tissue homogenates with [3H](+)pentazocine to measure displacement from Sigma-1 receptors and [3H] 1,3-Di-(2-tolyl)guanidine in the presence of 300 nM (+)pentazocine to measure displacement from Sigma-2 receptors.

[5] = test system: Abeta oligomer-induced membrane trafficking deficits in primary hippocampal neurons; experiment: Membrane Trafficking/Exocytosis (MTT) assay, Abeta oligomer effect on neurons; format: cell-based, rat; details: membrane trafficking; read-out: EC50 Abeta;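 also: compound potency for inhibiting the Abeta oligomer effect on exocytosis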
Method in brief: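 Rat E18 hippocampal neurons cultured 3 weeks received compound (100 uM to 0.001 nM), then vehicle or Abeta 1-42 oligomers (3 μM total Abeta), for 1-24 h at 37 °C. MTT was added for 1 h, and formazan vesicle exocytosis was quantified by automated imaging with DAPI toxicity check. Tukey-Kramer comparisons were made with N=4.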

Sequence of Sigma-2 receptors on membranes from rat cerebral cortex (Q5U3Y7 whole entry): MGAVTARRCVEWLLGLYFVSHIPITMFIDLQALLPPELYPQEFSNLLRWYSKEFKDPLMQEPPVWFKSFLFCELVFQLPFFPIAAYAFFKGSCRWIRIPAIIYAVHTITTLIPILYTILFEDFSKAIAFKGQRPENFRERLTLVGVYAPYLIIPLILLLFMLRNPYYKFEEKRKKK
Sequence of potassium channel hERG (Q12809 whole entry): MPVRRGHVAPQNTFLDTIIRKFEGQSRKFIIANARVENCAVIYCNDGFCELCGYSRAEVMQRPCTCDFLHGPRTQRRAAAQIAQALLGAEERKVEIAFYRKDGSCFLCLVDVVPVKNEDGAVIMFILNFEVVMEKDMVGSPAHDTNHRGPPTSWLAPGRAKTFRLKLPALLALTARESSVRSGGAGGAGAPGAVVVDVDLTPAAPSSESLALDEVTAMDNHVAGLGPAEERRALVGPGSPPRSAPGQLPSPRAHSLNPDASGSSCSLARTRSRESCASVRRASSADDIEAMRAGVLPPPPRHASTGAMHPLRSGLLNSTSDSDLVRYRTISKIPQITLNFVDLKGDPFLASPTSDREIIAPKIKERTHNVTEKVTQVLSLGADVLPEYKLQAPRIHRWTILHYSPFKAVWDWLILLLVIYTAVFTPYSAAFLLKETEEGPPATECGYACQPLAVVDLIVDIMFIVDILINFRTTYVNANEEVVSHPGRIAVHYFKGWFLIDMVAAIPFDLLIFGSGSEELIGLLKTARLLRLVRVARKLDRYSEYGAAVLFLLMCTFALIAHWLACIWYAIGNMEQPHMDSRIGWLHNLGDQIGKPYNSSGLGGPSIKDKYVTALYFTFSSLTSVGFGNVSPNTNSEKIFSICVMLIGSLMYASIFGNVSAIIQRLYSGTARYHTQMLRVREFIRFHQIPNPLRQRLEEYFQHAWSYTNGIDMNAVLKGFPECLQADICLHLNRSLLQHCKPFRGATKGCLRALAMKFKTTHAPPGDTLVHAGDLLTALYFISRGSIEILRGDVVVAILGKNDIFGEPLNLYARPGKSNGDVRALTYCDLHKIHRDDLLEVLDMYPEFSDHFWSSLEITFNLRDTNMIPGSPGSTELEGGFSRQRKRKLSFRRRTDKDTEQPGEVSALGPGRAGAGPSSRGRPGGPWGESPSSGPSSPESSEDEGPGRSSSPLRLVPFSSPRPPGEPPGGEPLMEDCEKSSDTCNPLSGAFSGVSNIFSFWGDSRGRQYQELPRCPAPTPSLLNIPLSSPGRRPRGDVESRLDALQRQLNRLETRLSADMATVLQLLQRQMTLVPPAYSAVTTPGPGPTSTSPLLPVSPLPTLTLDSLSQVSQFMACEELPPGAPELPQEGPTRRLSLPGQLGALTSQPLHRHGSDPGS
Sequence of Sigma-1 receptors on Jurkat cell membranes (Q99720 whole entry): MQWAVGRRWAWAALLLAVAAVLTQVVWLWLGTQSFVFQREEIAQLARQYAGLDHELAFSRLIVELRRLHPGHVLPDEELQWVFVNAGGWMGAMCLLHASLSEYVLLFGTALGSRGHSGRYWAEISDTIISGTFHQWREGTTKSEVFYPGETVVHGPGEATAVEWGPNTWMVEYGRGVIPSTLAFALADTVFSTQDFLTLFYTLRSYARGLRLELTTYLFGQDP

Structure (SMILES) | log P [1] | IC50 [2] [nM] | Ki [3] [nM] | Ki [4] [nM] | EC50 [5] [nM]
CC(C)(CCN1CCC(C2CCOCC2)CC1)c1ccc(C(F)(F)F)cc1 [Compound 1] | 5.16 | 740 | 0.7 | 0.2 | 
CC(CC(C)(C)c1ccc(C(F)(F)F)cc1)N1CCC(CCO)CC1 (centres unmarked) [Compound 2] | 4.67 | 9200 | 0.9 | 0.6 | > 15000
COCCCC1CCN(CCC(C)(C)c2ccc(C(F)(F)F)cc2)CC1 [Compound 4] | 5.35 | 2200 | 0.5 | 0.8 | 
COC1CCN(C(C)CC(C)(C)c2ccc(C(F)(F)F)cc2)CC1 (centres unmarked) [Compound 6] | 4.49 | 750 | 0.3 | 1 | > 15000
CC(C)(CCN1CCC(O)CC1)c1ccc(Cl)cc1 [Compound 8] | 3.16 | 14000 | 0.4 | 1.6 | 250
COC1CCN(CCC(C)(C)c2ccc(Cl)cc2)CC1 [Compound 10] | 3.8 | 11000 | 0.7 | 2.1 | 1260
CCC(C)(O)CCNC(C)CC(C)(C)c1ccc(C(F)(F)F)cc1 (centres unmarked) [Compound 12] | 4.13 | 970 | 1 | 2.7 | 
CC(CC(C)(C)c1ccc(C(F)(F)F)cc1)N1CCC(O)CC1 (centres unmarked) [Compound 13] | 3.85 | 2500 | 1 | 2.9 | 
CC(CC(C)(C)c1ccc(Cl)cc1)N1CCC(CO)CC1 (centres unmarked) [Compound 16] | 4.03 | 840 | 0.8 | 4.5 | 
CC(C)=CC(COc1ccc(F)cc1)N1CCC(O)CC1 (centres unmarked) [Compound 18] | 2.72 | 29000 | 2.6 | 5.6 | 250
CC(CC(C)(C)c1ccc(F)cc1)N1CCC(CO)CC1 (centres unmarked) [Compound 19] | 3.57 | 37000 | 2.2 | 6 | < 250
CC(CC(C)(C)c1ccc(Cl)cc1)N1CCC(O)CC1 (centres unmarked) [Compound 20] | 3.57 | 1700 | 1 | 6.1 | 
CC(CC(C)(C)c1ccc(Cl)cc1)N1CCC(C)(O)CC1 (centres unmarked) [Compound 22] | 3.85 | 1700 | 1 | 7 | 
CC(CC(C)(C)c1ccc(F)cc1)N1CCC(O)CC1 (centres unmarked) [Compound 25] | 3.11 | 4000 | 2.3 | 10 | 
COC1CCN(C(C=C(C)C)CC(C)(C)c2ccc(C(F)(F)F)cc2)CC1 (centres unmarked) [Compound 39] | 5.49 | 8200 | 25 | 43 | 600
COCCOCCC1CCN(C(C=C(C)C)CC(C)(C)c2ccc(C(F)(F)F)cc2)CC1 (centres unmarked) [Compound 40] | 6.28 | 9600 | 170 | 44 | 830
CC(C)=CC(CC(C)(C)c1ccc(F)cc1)N1CCN(C(=O)OC(C)(C)C)CC1 (centres unmarked) [Compound 47] | 5.55 | 14000 | 1910 | 90 | 
CC(C)=CC(CC(C)(C)c1ccc(Cl)cc1)N1CCC(c2ccnc(N3CCCC3)c2)CC1 (centres unmarked) [Compound 63] | 7.42 |  |  | 240 | 1500
CC(C)=CC(CCc1ccc(C)cc1)N1CCC(C2CCOCC2)CC1 (centres unmarked) [Compound 64] | 3.52 | 11000 | 535 | 268 | 
CC(C)=CC(CCc1ccc(F)cc1)N1CCC(C2CCOCC2)CC1 (centres unmarked) [Compound 65] | 4.13 | 2300 | 1200 | 270 | 
CC(C)=CC(CC(C)(C)c1ccc(Cl)cc1)N1CCC(c2ccnc(N3CCOCC3)c2)CC1 (centres unmarked) [Compound 67] | 6.8 |  |  | 300 | 13000
CC(=O)N1CCN(C(C=C(C)C)CC(C)(C)c2ccc(C(F)(F)F)cc2)CC1 (centres unmarked) [Compound 71] | 4.61 | 17000 | 62 | 340 | 
COc1ccc(C(C)(C)CC(C=C(C)C)NCC2CCOCC2)cc1 (centres unmarked) [Compound 74] | 4.54 |  |  | 430 | 12900
CC(C)=CC(CC(C)(C)c1ccc(C)cc1)N[C@H](C)c1ccccc1 (some centres unmarked) [Compound 80] | 6.93 |  |  | 1300 | 640
CC(=O)N1CCN(C(C=C(C)C)CC(C)(C)c2ccc(F)cc2)CC1 (centres unmarked) [Compound 81] | 3.87 | 32000 | 160 | 2500 | 
CC(C)=CC(CC(C)(C)c1ccc(F)cc1)N1CCC(CCOC2CCOC2)CC1 (centres unmarked) [Compound 179] | 5.49 | 4000 | 430 |  | 
CC(C)=CC(CC(C)(C)c1ccc(C(F)(F)F)cc1)N1CCC(CCOC2CCOC2)CC1 (centres unmarked) [Compound 182] | 6.22 | 2600 | 160 |  | 
CC(C)=CC(COc1ccccc1)N1CCC(O)CC1 (centres unmarked) [Compound 184] | 2.57 | 62000 | 220 |  | 
CC(C)=CC(COc1ccc(Cl)cc1)N1CCC(O)CC1 (centres unmarked) [Compound 186] | 3.18 | 2300 | 42 |  | 
CC(C)=CC(CC(C)(C)c1ccc(C(F)(F)F)cc1)N1CCC2(CC1)OCc1ccccc12 (centres unmarked) [Compound 189] | 6.89 | 5700 | 37 |  | 
